The term EC50 denotes the concentration at which the effect is half-maximal.

This is an account of results in patent US12723063B2, “GIPR-agonist compounds” (Eli Lilly and Company, priority 2019, dated 2026).

*1 amine or outer side, *2 acyl side, *3 side chain or, on linkers, in order; H or OH if unused. Where a SMILES comes first, the peptide text is derived from it. Side-chain parts run from the residue outwards. [ ]: non-standard residue; d: D form. The star is where a group is joined. C20 diacid = O=C(O)CCCCCCCCCCCCCCCCCCC(=O)*; γGlu = O=C(O)[C@H](CCC(=O)[*:2])N[*:1]; AEEA = NCCOCCOCC(=O)O; Aib = CC(C)(N)C(=O)O Where only a bound is given, the exact number is not on record here.

Test in all cases: cAMP functional assay (HTRF) in HEK293 cells in presence of 0.1% casein
Common to all, as to assay type: cell-based
Background: In TR-FRET formats the signal depends on donor and acceptor labels being close together.

Experiment [1] deals with T1, human GLP-1 receptor (GLP-1R) (Homo sapiens, UniProt P43220).
T1 construct: expressed in transfected cells; host or cells: HEK293
T1 sequence (P43220 24-463): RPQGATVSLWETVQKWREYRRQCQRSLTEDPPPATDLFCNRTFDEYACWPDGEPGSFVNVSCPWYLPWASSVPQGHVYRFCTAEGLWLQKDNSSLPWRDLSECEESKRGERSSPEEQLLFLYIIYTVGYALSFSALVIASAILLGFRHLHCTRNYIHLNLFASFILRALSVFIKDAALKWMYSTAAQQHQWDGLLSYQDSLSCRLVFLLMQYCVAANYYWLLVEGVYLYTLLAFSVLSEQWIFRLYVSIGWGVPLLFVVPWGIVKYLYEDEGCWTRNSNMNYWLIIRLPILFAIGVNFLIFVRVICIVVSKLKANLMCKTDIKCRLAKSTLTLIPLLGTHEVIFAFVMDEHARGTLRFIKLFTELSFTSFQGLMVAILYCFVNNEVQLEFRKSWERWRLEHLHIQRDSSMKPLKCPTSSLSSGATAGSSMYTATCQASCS
Conditions: HEK293 cells expressing human GLP-1R, geometric mean, read-out: hGLP1R cAMP Rel EC50 nM (SEM, n).

Experiment [2] deals with T2, human glucose-dependent insulinotropic peptide receptor (GIPR) (Homo sapiens, UniProt P48546).
T2 construct: expressed in transfected cells; host or cells: HEK293
T2 sequence (P48546 22-466): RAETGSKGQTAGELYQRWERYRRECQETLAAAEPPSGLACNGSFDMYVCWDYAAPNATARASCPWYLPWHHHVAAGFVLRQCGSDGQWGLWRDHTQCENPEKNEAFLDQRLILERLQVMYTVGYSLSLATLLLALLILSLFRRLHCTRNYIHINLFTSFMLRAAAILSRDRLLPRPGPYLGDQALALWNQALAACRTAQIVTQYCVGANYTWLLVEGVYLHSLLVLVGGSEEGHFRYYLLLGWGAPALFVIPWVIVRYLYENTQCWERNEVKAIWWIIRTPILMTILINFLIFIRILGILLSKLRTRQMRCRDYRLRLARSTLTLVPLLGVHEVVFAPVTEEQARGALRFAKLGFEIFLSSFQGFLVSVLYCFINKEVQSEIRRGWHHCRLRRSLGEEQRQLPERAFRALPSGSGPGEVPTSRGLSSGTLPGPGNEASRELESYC
Conditions: HEK293 cells expressing human GIPR, geometric mean, read-out: hGIPR cAMP Rel EC50 nM (SEM, n).

The target of experiment [3] is T3, human glucagon receptor (GcgR) (Homo sapiens, UniProt P47871).
T3 construct: expressed in transfected cells; host or cells: HEK293
T3 sequence (P47871 26-477): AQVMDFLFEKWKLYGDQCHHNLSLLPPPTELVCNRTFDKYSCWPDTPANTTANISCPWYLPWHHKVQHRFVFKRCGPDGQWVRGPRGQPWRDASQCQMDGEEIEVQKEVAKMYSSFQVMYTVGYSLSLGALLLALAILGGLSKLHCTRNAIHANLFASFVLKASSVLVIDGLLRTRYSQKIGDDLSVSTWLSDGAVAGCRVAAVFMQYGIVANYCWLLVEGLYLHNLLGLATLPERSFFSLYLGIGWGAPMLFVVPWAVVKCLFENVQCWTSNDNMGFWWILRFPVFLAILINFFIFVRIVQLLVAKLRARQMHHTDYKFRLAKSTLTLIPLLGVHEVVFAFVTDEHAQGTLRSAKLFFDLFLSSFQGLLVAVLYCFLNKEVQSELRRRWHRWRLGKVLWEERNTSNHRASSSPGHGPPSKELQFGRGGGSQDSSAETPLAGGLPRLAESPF
The conditions noted are these: HEK293 cells expressing human GcgR, geometric mean, read-out: hGcgR cAMP Rel EC50 nM (SEM, n).

With `CC[C@H](C)[C@H](NC(=O)[C@H](CO)NC(=O)[C@H](Cc1ccc(O)cc1)NC(=O)[C@H](CC(=O)O)NC(=O)[C@H](CO)NC(=O)[C@@H](NC(=O)[C@H](Cc1ccccc1)NC(=O)[C@@H](NC(=O)CNC(=O)[C@H](CCC(=O)O)NC(=O)[C@@H](C)NC(=O)[C@@H](N)Cc1ccc(O)cc1)[C@@H](C)O)[C@@H](C)CC)C(=O)N[C@@H](CC(C)C)C(=O)N[C@@H](CC(C)C)C(=O)N[C@@H](CC(=O)O)C(=O)N[C@@H](CCCCN)C(=O)N[C@@H](CCCCNC(=O)COCCOCCNC(=O)COCCOCCNC(=O)CC[C@H](NC(=O)CCCCCCCCCCCCCCCCCCC(=O)O)C(=O)O)C(=O)N[C@@H](Cc1c[nH]cn1)C(=O)N[C@@H](CCC(N)=O)C(=O)NC(C)(C)C(=O)N[C@@H](CC(=O)O)C(=O)N[C@@H](Cc1ccccc1)C(=O)N[C@H](C(=O)N[C@@H](CC(N)=O)C(=O)N[C@@H](Cc1c[nH]c2ccccc12)C(=O)N[C@@H](CC(C)C)C(=O)N[C@@H](CC(C)C)C(=O)N[C@@H](C)C(=O)N[C@@H](CCC(N)=O)C(=O)NCC(=O)N1CCC[C@H]1C(=O)N[C@@H](CO)C(=O)N[C@@H](CO)C(=O)NCC(=O)N[C@@H](C)C(=O)N1CCC[C@H]1C(=O)N1CCC[C@H]1C(=O)N1CCC[C@H]1C(=O)N[C@@H](CO)C(N)=O)C(C)C` [Example 9] (H-Y[dA]EGTFISDYSILLDKK([AEEA-AEEA-γGlu-C20 diacid])HQ[Aib]DFVNWLLAQGPSSGAPPPS-NH2), the figures for the concentration for a half-maximal effect (EC50) in experiment [1], in experiment [2] and in experiment [3] were more than 100 nM, 0.165 nM and more than 5000 nM, respectively.
Regarding `CC[C@H](C)[C@H](NC(=O)[C@H](CO)NC(=O)[C@H](Cc1ccc(O)cc1)NC(=O)[C@H](CC(=O)O)NC(=O)[C@H](CO)NC(=O)[C@@H](NC(=O)[C@H](Cc1ccccc1)NC(=O)[C@@H](NC(=O)CNC(=O)[C@H](CCC(=O)O)NC(=O)[C@@H](C)NC(=O)[C@@H](N)Cc1ccc(O)cc1)[C@@H](C)O)[C@@H](C)CC)C(=O)N[C@@H](CC(C)C)C(=O)N[C@@H](CC(C)C)C(=O)N[C@@H](CC(=O)O)C(=O)N[C@@H](CCCCN)C(=O)N[C@@H](CCCCNC(=O)COCCOCCNC(=O)COCCOCCNC(=O)CC[C@H](NC(=O)CCCCCCCCCCCCCCCCCCC(=O)O)C(=O)O)C(=O)N[C@@H](Cc1c[nH]cn1)C(=O)N[C@@H](CCC(N)=O)C(=O)N[C@@H](CCC(N)=O)C(=O)N[C@@H](CC(=O)O)C(=O)N[C@@H](Cc1ccccc1)C(=O)N[C@H](C(=O)N[C@@H](CC(N)=O)C(=O)N[C@@H](Cc1c[nH]c2ccccc12)C(=O)N[C@@H](CC(C)C)C(=O)N[C@@H](CC(C)C)C(=O)N[C@@H](C)C(=O)NCC(=O)NCC(=O)N1CCC[C@H]1C(=O)N[C@@H](CO)C(=O)N[C@@H](CO)C(=O)NCC(=O)N[C@@H](C)C(=O)N1CCC[C@H]1C(=O)N1CCC[C@H]1C(=O)N1CCC[C@H]1C(=O)N[C@@H](CO)C(N)=O)C(C)C` [Example 10] (H-Y[dA]EGTFISDYSILLDKK([AEEA-AEEA-γGlu-C20 diacid])HQQDFVNWLLAGGPSSGAPPPS-NH2), the concentration for a half-maximal effect (EC50) in experiment [1] is more than 100 nM; in experiment [2] it was 0.611 nM; in experiment [3], more than 5000 nM.
The like results for `CC[C@H](C)[C@H](NC(=O)[C@H](CO)NC(=O)[C@H](Cc1ccc(O)cc1)NC(=O)[C@H](CC(=O)O)NC(=O)[C@H](CO)NC(=O)[C@@H](NC(=O)[C@H](Cc1ccccc1)NC(=O)[C@@H](NC(=O)CNC(=O)[C@H](CCC(=O)O)NC(=O)[C@@H](C)NC(=O)[C@@H](N)Cc1ccc(O)cc1)[C@@H](C)O)[C@@H](C)CC)C(=O)N[C@@H](CC(C)C)C(=O)N[C@@H](CC(C)C)C(=O)N[C@@H](CC(=O)O)C(=O)N[C@@H](CCCCN)C(=O)N[C@@H](CCCCNC(=O)COCCOCCNC(=O)COCCOCCNC(=O)CC[C@H](NC(=O)CCCCCCCCCCCCCCCCCCC(=O)O)C(=O)O)C(=O)N[C@@H](C)C(=O)N[C@@H](CCC(N)=O)C(=O)N[C@@H](CCC(N)=O)C(=O)N[C@@H](CC(=O)O)C(=O)N[C@@H](Cc1ccccc1)C(=O)N[C@H](C(=O)N[C@@H](CC(N)=O)C(=O)N[C@@H](Cc1c[nH]c2ccccc12)C(=O)N[C@@H](CC(C)C)C(=O)N[C@@H](CC(C)C)C(=O)N[C@@H](C)C(=O)N[C@@H](CCC(N)=O)C(=O)NCC(=O)N1CCC[C@H]1C(=O)N[C@@H](CO)C(=O)N[C@@H](CO)C(=O)NCC(=O)N[C@@H](C)C(=O)N1CCC[C@H]1C(=O)N1CCC[C@H]1C(=O)N1CCC[C@H]1C(=O)N[C@@H](CO)C(N)=O)C(C)C` [Example 11] (H-Y[dA]EGTFISDYSILLDKK([AEEA-AEEA-γGlu-C20 diacid])AQQDFVNWLLAQGPSSGAPPPS-NH2) were, in that order, more than 100 nM, 0.0738 nM and 445 nM.
The matching figures for `CC[C@H](C)[C@H](NC(=O)[C@H](CO)NC(=O)[C@H](Cc1ccc(O)cc1)NC(=O)[C@H](CC(=O)O)NC(=O)[C@H](CO)NC(=O)[C@@H](NC(=O)[C@H](Cc1ccccc1)NC(=O)[C@@H](NC(=O)CNC(=O)[C@H](CCC(=O)O)NC(=O)[C@@H](C)NC(=O)[C@@H](N)Cc1ccc(O)cc1)[C@@H](C)O)[C@@H](C)CC)C(=O)N[C@@H](CC(C)C)C(=O)N[C@@H](CC(C)C)C(=O)N[C@@H](CC(=O)O)C(=O)N[C@@H](CCCCN)C(=O)N[C@@H](CCCCNC(=O)COCCOCCNC(=O)COCCOCCNC(=O)CC[C@H](NC(=O)CCCCCCCCCCCCCCCCCCC(=O)O)C(=O)O)C(=O)N[C@@H](C)C(=O)N[C@@H](CCC(N)=O)C(=O)N[C@@H](CCC(N)=O)C(=O)N[C@@H](CC(=O)O)C(=O)N[C@@H](Cc1ccccc1)C(=O)N[C@H](C(=O)N[C@@H](CC(N)=O)C(=O)N[C@@H](Cc1c[nH]c2ccccc12)C(=O)N[C@@H](CC(C)C)C(=O)N[C@@H](CC(C)C)C(=O)N[C@@H](C)C(=O)NCC(=O)NCC(=O)N1CCC[C@H]1C(=O)N[C@@H](CO)C(=O)N[C@@H](CO)C(=O)NCC(=O)N[C@@H](C)C(=O)N1CCC[C@H]1C(=O)N1CCC[C@H]1C(=O)N1CCC[C@H]1C(=O)N[C@@H](CO)C(N)=O)C(C)C` [Example 12] (H-Y[dA]EGTFISDYSILLDKK([AEEA-AEEA-γGlu-C20 diacid])AQQDFVNWLLAGGPSSGAPPPS-NH2): more than 100 nM, 0.0911 nM and more than 5000 nM.
The like results for `CC[C@H](C)[C@H](NC(=O)[C@H](CO)NC(=O)[C@H](Cc1ccc(O)cc1)NC(=O)[C@H](CC(=O)O)NC(=O)[C@H](CO)NC(=O)[C@@H](NC(=O)[C@H](Cc1ccccc1)NC(=O)[C@@H](NC(=O)CNC(=O)[C@H](CCC(=O)O)NC(=O)[C@@H](C)NC(=O)[C@@H](N)Cc1ccc(O)cc1)[C@@H](C)O)[C@@H](C)CC)C(=O)N[C@@H](CC(C)C)C(=O)N[C@@H](CC(C)C)C(=O)N[C@@H](CC(=O)O)C(=O)N[C@@H](CCCCN)C(=O)N[C@@H](CCCCNC(=O)COCCOCCNC(=O)COCCOCCNC(=O)CC[C@H](NC(=O)CCCCCCCCCCCCCCCCCCC(=O)O)C(=O)O)C(=O)N[C@@H](Cc1c[nH]cn1)C(=O)N[C@@H](CCC(N)=O)C(=O)N[C@@H](CCC(N)=O)C(=O)N[C@@H](CCC(=O)O)C(=O)N[C@@H](Cc1ccccc1)C(=O)N[C@H](C(=O)N[C@@H](CC(N)=O)C(=O)N[C@@H](Cc1c[nH]c2ccccc12)C(=O)N[C@@H](CC(C)C)C(=O)N[C@@H](CC(C)C)C(=O)N[C@@H](C)C(=O)N[C@@H](CCC(N)=O)C(=O)NCC(=O)N1CCC[C@H]1C(=O)N[C@@H](CO)C(=O)N[C@@H](CO)C(=O)NCC(=O)N[C@@H](C)C(=O)N1CCC[C@H]1C(=O)N1CCC[C@H]1C(=O)N1CCC[C@H]1C(=O)N[C@@H](CO)C(N)=O)C(C)C` [Example 13] (H-Y[dA]EGTFISDYSILLDKK([AEEA-AEEA-γGlu-C20 diacid])HQQEFVNWLLAQGPSSGAPPPS-NH2) were, in that order, more than 100 nM, 0.129 nM and more than 5000 nM.
In the case of `CC[C@H](C)[C@H](NC(=O)[C@H](CO)NC(=O)[C@H](Cc1ccc(O)cc1)NC(=O)[C@H](CC(=O)O)NC(=O)[C@H](CO)NC(=O)[C@@H](NC(=O)[C@H](Cc1ccccc1)NC(=O)[C@@H](NC(=O)CNC(=O)[C@H](CCC(=O)O)NC(=O)[C@@H](C)NC(=O)[C@@H](N)Cc1ccc(O)cc1)[C@@H](C)O)[C@@H](C)CC)C(=O)N[C@@H](CC(C)C)C(=O)N[C@@H](CC(C)C)C(=O)N[C@@H](CC(=O)O)C(=O)N[C@@H](CCCCN)C(=O)N[C@@H](CCCCNC(=O)COCCOCCNC(=O)COCCOCCNC(=O)CC[C@H](NC(=O)CCCCCCCCCCCCCCCCCCC(=O)O)C(=O)O)C(=O)N[C@@H](Cc1c[nH]cn1)C(=O)N[C@@H](CCC(N)=O)C(=O)N[C@@H](CCC(N)=O)C(=O)N[C@@H](CC(=O)O)C(=O)N[C@@H](Cc1ccccc1)C(=O)N[C@H](C(=O)N[C@@H](CCC(=O)O)C(=O)N[C@@H](Cc1c[nH]c2ccccc12)C(=O)N[C@@H](CC(C)C)C(=O)N[C@@H](CC(C)C)C(=O)N[C@@H](C)C(=O)N[C@@H](CCC(N)=O)C(=O)NCC(=O)N1CCC[C@H]1C(=O)N[C@@H](CO)C(=O)N[C@@H](CO)C(=O)NCC(=O)N[C@@H](C)C(=O)N1CCC[C@H]1C(=O)N1CCC[C@H]1C(=O)N1CCC[C@H]1C(=O)N[C@@H](CO)C(N)=O)C(C)C` [Example 14] (H-Y[dA]EGTFISDYSILLDKK([AEEA-AEEA-γGlu-C20 diacid])HQQDFVEWLLAQGPSSGAPPPS-NH2), the EC50 in experiment [1] was more than 100 nM; in experiment [2] it was 0.34 nM; in experiment [3], more than 5000 nM.
